Reference: ChEMBL document CHEMBL4177532, “Antibacterial Nerol Cinnamates from the Australian Plant Eremophila longifolia” (J Nat Prod, 2017)
Converted amounts (≈) assume the structure as drawn.

Experiments:
[1] = Cytotoxicity against HEK293 cells assessed as reduction in cell viability incubated for 24 hrs by resazurin based assay; settings: human
HepG2 = experiment: Cytotoxicity against human HepG2 cells assessed as reduction in cell viability incubated for 24 hrs by resazurin based assay; assay type: functional; settings: HepG2, 24 h
Staphylococcus aureus [2] = experiment: Antimicrobial activity against Staphylococcus aureus; assay type: functional
Escherichia coli [3] = experiment: Antimicrobial activity against Escherichia coli; assay type: functional
Staphylococcus aureus [4] = experiment: microbe, parasite or virus in culture; assay type: functional; settings: ATCC 43300
Staphylococcus aureus [5] = experiment: Antimicrobial activity against glycopeptide intermediate resistant Staphylococcus aureus NARSA NRS 17 by microdilution plate based method; assay type: functional
Staphylococcus aureus [6] = experiment: Antimicrobial activity against vancomycin-resistant Staphylococcus aureus NARSA VRS 1 by microdilution plate based method; assay type: functional
Streptococcus pneumoniae = experiment: Antimicrobial activity against multidrug resistant Streptococcus pneumoniae ATCC 700677 by microdilution plate based method; assay type: functional
Enterococcus faecium = experiment: Antimicrobial activity against vancomycin-resistant and VanA expressing Enterococcus faecium ATCC 51559 by microdilution plate based method; assay type: functional
Escherichia coli [7] = experiment: Antimicrobial activity against Escherichia coli ATCC 25922 by microdilution plate based method; assay type: functional
Acinetobacter baumannii = experiment: Antimicrobial activity against Acinetobacter baumannii ATCC 19606 by microdilution plate based method; assay type: functional; settings: ATCC 19606 = CIP 70.34 = JCM 6841
Candida albicans = experiment: Antimicrobial activity against Candida albicans ATCC 90028 by microdilution plate based method; assay type: functional
Cryptococcus neoformans = experiment: Antimicrobial activity against Cryptococcus neoformans ATCC 208821 by microdilution plate based method; assay type: functional
[8] = Drug metabolism assessed as compound auto-oxidation; assay type: physicochemical
[9] = system: Trypanosoma brucei brucei; experiment: Antitrypanosomal activity against Trypanosoma brucei brucei GUTat 3.1 incubated for 72 hrs by alamar blue dye based assay; assay type: functional, organism-based; settings: GUTat 3.1, 72 h
MRC5 = experiment: Cytotoxicity against human MRC5 cells; assay type: cell-based

| SMILES | CC50 at 24 h [1] [µM] | CC50 (HepG2) [µM] | MIC (Staphylococcus aureus [4]) [µg/mL] | MIC (Staphylococcus aureus [5]) [µg/mL] | MIC (Staphylococcus aureus [6]) [µg/mL] | MIC (Streptococcus pneumoniae) [µg/mL] | MIC (Enterococcus faecium) [µg/mL] | MIC (Escherichia coli [7]) [µg/mL] | MIC (Acinetobacter baumannii) [µg/mL] | MIC (Candida albicans) [µg/mL] | MIC (Cryptococcus neoformans) [µg/mL] | further results |
| --- | --- | --- | --- | --- | --- | --- | --- | --- | --- | --- | --- | --- |
| CC(C)=CCC/C(C)=C/COC(=O)/C=C/c1ccccc1 |  |  |  |  |  |  |  |  |  |  |  | MIC (Staphylococcus aureus [2]): 5000 µg/mL (≈ 17600 µM); MIC (Escherichia coli [3]): 5000 µg/mL (≈ 17600 µM) |
| CCCCCCCCCC(=O)N[C@@H](Cc1c[nH]c2ccccc12)C(=O)N[C@@H](CC(N)=O)C(=O)N[C@@H](CC(=O)O)C(=O)N[C@@H]1C(=O)NCC(=O)N[C@@H](CCCN)C(=O)N[C@@H](CC(=O)O)C(=O)N[C@H](C)C(=O)N[C@@H](CC(=O)O)C(=O)NCC(=O)N[C@H](CO)C(=O)N[C@@H]([C@H](C)CC(=O)O)C(=O)N[C@@H](CC(=O)c2ccccc2N)C(=O)O[C@@H]1C [DAPTOMYCIN] |  |  | 4 (≈ 2.47 µM) | 16 to 32 (≈ 9.87 to 19.7 µM) | 8 (≈ 4.94 µM) | 8 (≈ 4.94 µM) | 32 (≈ 19.7 µM) |  |  |  |  |  |
| COc1cc(/C=C/C(=O)OC/C=C(/C)CCC=C(C)C)ccc1O | 273 | 300 | 16 (≈ 48.4 µM) | 16 (≈ 48.4 µM) | 16 to 32 (≈ 48.4 to 96.8 µM) | 8 to 16 (≈ 24.2 to 48.4 µM) | 8 (≈ 24.2 µM) | > 64 | > 64 | > 64 | 32 to 64 (≈ 96.8 to 194 µM) | Drug metabolism [8]: Metabolite_Detected |
| CC(C)=CCC/C(C)=C\COC(=O)/C=C/c1ccc(O)cc1 | 273 | 157 | > 64 | > 64 | > 64 | 64 (≈ 213 µM) | 8 (≈ 26.6 µM) | > 64 | > 64 | > 64 | 32 to 64 (≈ 107 to 213 µM) | Drug metabolism [8]: Metabolite_Detected |
| OC(Cn1cncn1)(Cn1cncn1)c1ccc(F)cc1F [FLUCONAZOLE] |  |  |  |  |  |  |  |  |  | 0.3 to 0.5 (≈ 0.98 to 1.63 µM) | 8 (≈ 26.1 µM) |  |
| CC(C)=CCC/C(C)=C\CC/C(C)=C\COC(=O)/C=C/c1ccc(O)c(O)c1 [FARNESYL CAFFEATE] |  |  |  |  |  |  |  |  |  |  |  | IC50 [9]: 0.23 µg/mL (≈ 0.598 µM); IC50 (MRC5): 13.3 µg/mL (≈ 34.6 µM) |
| CN[C@H](CC(C)C)C(=O)N[C@H]1C(=O)N[C@@H](CC(N)=O)C(=O)N[C@H]2C(=O)N[C@H]3C(=O)N[C@H](C(=O)N[C@H](C(=O)O)c4cc(O)cc(O)c4-c4cc3ccc4O)[C@H](O)c3ccc(c(Cl)c3)Oc3cc2cc(c3O[C@@H]2O[C@H](CO)[C@@H](O)[C@H](O)[C@H]2O[C@H]2C[C@](C)(N)[C@H](O)[C@H](C)O2)Oc2ccc(cc2Cl)[C@H]1O.Cl [VANCOMYCIN HYDROCHLORIDE] |  |  |  | > 32 | > 32 | 2 | > 32 |  |  |  |  |  |
| CC[C@H](C)CCCCC(=O)N[C@@H](CCN)C(=O)N[C@H](C(=O)N[C@@H](CCN)C(=O)N[C@H]1CCNC(=O)[C@H]([C@@H](C)O)NC(=O)[C@H](CCN)NC(=O)[C@H](CCN)NC(=O)[C@H](CC(C)C)NC(=O)[C@@H](Cc2ccccc2)NC(=O)[C@H](CCN)NC1=O)[C@@H](C)O.O=S(=O)(O)O.O=S(=O)(O)O |  |  |  |  |  |  |  | 0.3 | 0.3 |  |  |  |
